“Also recorded” adds a separate entry of the source.
Key:
[1] = test system: murine melanoma B16OVA; assay: Prevention of tumor growth, intraperitoneal melanoma after preventive treatment (Example 5); assay type: in vivo, mice; conditions: 50 μg/ml intraperitoneal 7 days before i.p. B16OVA, adult C57BL/6
Experimental: For the comparative study of the prevention of tumor growth in adults between the therapy of the invention and known anti-tumor therapies, the following therapies (50 μg/ml) were inoculated in female adults of the C57BL/6 strain in an intraperitoneal manner: LLO91-99 (only peptide from listeriolysin O of Listeria monocytogenes, LLO91-99), GNP (empty gluconanoparticles), GNP-LLO91-99 (gluconanoparticles synthesized with the peptide from listeriolysin O of Listeria monocytogenes, LLO91-99), GNP-GAPDH1-22 (nanoparticles synthesized with the peptide from glyceraldehyde-3-phosphate dehydrogenase of Listeria monocytogenes, GAPDH1-22) or saline (NT).
Following 7 days preventative post-treatment, the tumors were established following inoculation with 5×10^6 cells of murine melanoma B16OVA in an intraperitoneal manner. Following 7 days post-established of the tumor, the mice were sacrificed and the recovered tumors were measured by means of a gauge and the tumors were analyzed by means of immunohistochemical staining. The results of the reduction of the tumor growth and their intraperitoneal position are shown in FIG. 4A and FIG. 4B and the results of the analysis of the immunohistochemical staining in FIG. 4C.

[2] = test system: murine melanoma B16F10; assay: Reduction of the size of the tumor in newborns (Example 6); assay type: in vivo; conditions: 9-day old Balb/c mice, s.c. B16F10 established 5 days, 50 μg/ml in the tumors for 5 days
Experimental: For the study of the reduction of the size of the tumor in newborns making use of different therapies and their comparison with that of the invention, 5×10^5 cells of murine melanoma B16F10 were inoculated in a subcutaneous manner in the interscapular area of 9-day old female mice of the Balb/c strain.
(§1) Following 5 days post-inoculation, 50 μg/ml of the following therapies were inoculated in the tumors for 5 days: LLO91-99 (only peptide from listeriolysin O of Listeria monocytogenes, LLO91-99), GNP (empty gluconanoparticles), GNP-LLO91-99 (gluconanoparticles synthesized with the peptide from listeriolysin O of Listeria monocytogenes, LLO91-99), GNP-GAPDH1-22 (nanoparticles synthesized with the peptide from glyceraldehyde-3-phosphate dehydrogenase of Listeria monocytogenes, GAPDH1-22). As a control, a vector previously used in therapy was also included, dendritic cells loaded with the LLO91-99 (1×10^5 DC-LLO91-99) peptide.
(§2) Following this treatment, the mice were sacrificed and the tumors recovered, measuring their size with a gauge.

[3] = test system: murine melanoma B16F10; assay: Reduction of the size of the tumor, subcutaneous murine melanoma in adult mice (Example 2); assay type: in vivo; conditions: adult C57BL/6 mice, s.c. B16F10 established 7 days, 50 μg/ml inoculated in the tumors for 5 days
Experimental: For the study of the reduction of the size of the tumor making use of different therapies and their comparison with that of the invention, 1×10^6 cells of murine melanoma B16F10 were inoculated in a subcutaneous manner in the left ventral flank of 8-12-week old female mice of the C57BL/6 strain.
as §1, with “After 7” for “Following 5”, “GAPDH1-22) or no particle (NT). Dendritic cells loaded with the LLO91-99 (1×10^6 DC-LLO91-99) peptide were also included as” for “GAPDH1-22). As”, “therapy.” for “therapy was also included, dendritic cells loaded with the LLO91-99 (1×10^5 DC-LLO91-99) peptide.”
as §2

H-Gly-Tyr-Lys-Asp-Gly-Asn-Glu-Tyr-Ile-OH (H-GYKDGNEYI-OH) [LLO91-99, only peptide from listeriolysin O of Listeria monocytogenes, LLO91-99]
preventative / therapeutic effect on the melanoma (in words) [1]: failed to achieve any therapeutic effect
therapeutic effect on the melanoma in newborns (in words) [2]: failed to achieve any therapeutic effect
therapeutic effect on the melanoma (in words) [3]: do not achieve any therapeutic effect; also recorded: failed to achieve any therapeutic effect

From US20190046627A1, “USE OF A GNP-LLO91-99 COMPLEX FOR THE TREATMENT AND PREVENTION OF CANCER” (FUNDACIÓN INSTITUTO DE INVESTIGACIÓN MARQUES DE VALDECILLA, priority 2016, published 2019)
